Source: paper PMC3689634, “Self-assembled peptide amphiphiles function as multivalent binder with increased hemagglutinin affinity” (BMC Biotechnology, 2013)
“Also recorded” adds a separate entry of the source.

Key:
[1] = system: HA receptor (hemagglutinin); conditions: monovalent binding; cited from earlier work
[2] = system: hemagglutinin H5 (HA1 aa 17–338, A/chicken/Jilin/9/2004 (H5N1)); type: binding, influenza A virus (H5N1); conditions: pH 7.4

Row | Compound | association constant, single SA molecule to a single HA receptor [1] | SPR binding signal to immobilised H5 (in words) [2]
1 | CC(=O)N[C@H]1[C@H]([C@H](O)[C@H](O)CO)OC(O)(C(=O)O)C[C@@H]1O (some centres unmarked) [SA, sialic acid] | 10^3 M^-1 | 
2 | C16-GSWGEW [negative control] |  | no binding affinity; also recorded: no quantitative measurable signal changes
